US10544112B2, “Identification of ebsulfur analogues with broad-spectrum antifungal activity” (priority 2017, dated 2020)
Values after ≈ are worked out from the molar mass of the structure shown.

What was measured:
[1] = tested on: C. albicans ATCC 64124 (strain B); experiment: microbe, parasite or virus in culture; type: cell-based, Candida albicans; conditions: strain B; compounds 1-4n and AmB; 48 h, RPMI 1640
Method: (§1) Fungal MIC determination experiments were performed using untreated 96-well plates (Corning). Cells were counted either by using a hemocytometer (Hausser Scientific, Horsham, Pa., USA) or by measuring optical density at attenuance of 600 nm (OD600) by using a Genesys 20 spectrophotometer (Thermo Scientific, Waltham, Mass., USA). Spectrophotometric and colorimetric measurements in 96-well plates were performed using a SpectraMax M5 spectrometer (Molecular Devices, Sunnyvale, Calif., USA).
(§2) Yeast strains Candida albicans ATCC 10231 (strain A), C. albicans ATCC 64124 (strain B), and C. albicans ATCC MYA-2876(S) (strain C) were kindly provided by Dr. Jon Y. Takemoto (Utah State University, Logan, UT, USA). C. albicans ATCC MYA-90819(R) (strain D), C. albicans ATCC MYA-2310(S) (strain E), C. albicans ATCC 1237(R) (strain F), C. albicans ATCC MYA-1003(R) (strain G), Candida glabrata ATCC 2001 (strain H), Candida krusei ATCC 6258 (strain I), and Candida parapsilosis ATCC 22019 (strain J) were obtained from the American Type Culture Collection (ATCC, Manassas, Va., USA). The (S) and (R) indicate that ATCC reports these strains to be susceptible (S) and resistant (R) to ITC and FLC. The filamentous fungal strains Aspergillus flavus ATCC MYA-3631 (strain K), and Aspergillus terreus ATCC MYA-3633 (strain M) were also obtained from the American Type Culture Collection (ATCC, Manassas, Va., USA). Aspergillus nidulans ATCC 38163 (strain L) was kindly provided by Dr. Jon S. Thorson (University of Kentucky, Lexington, Ky., USA), respectively. Yeast strains were cultured at 35° C. Filamentous fungal strains were cultured at 25° C. and the spores were harvested. All fungal strains were cultured in RPMI 1640 medium (catalog # R6504, Sigma-Aldrich Chemical Co., St. Louis, Mo.) buffered to pH 7.0 with 0.165 M morpholinepropanesulfonic acid (MOPS) buffer (Sigma-Aldrich Chemical Co.).
(§3) The MIC values against fungal strains were determined based on a previously published protocol. MIC values for ebsulfur (2a) analogues against fungal cells were evaluated in 96-well plates as described in the CLSI document M27-A3 with minor modifications. […] Therefore, potato dextrose broth (PDB) was used to grow the yeast inocula of all strains tested, which were later diluted in RPMI 1640 medium to perform determination of MIC values. […] The tested compounds (10 mg/mL) were diluted to the working stocks (500 μg/mL) by addition of DMSO. Two-fold serial dilution of the working stocks was prepared by addition of RPMI 1640 medium (100 μL) and cell suspension (100 μL) to 96-well microtiter plate to achieve final drug and inoculum concentrations ranging from 12.5-0.02 μg/mL and 5×10^3 CFU/mL, respectively. Plates were incubated for 48 h at 35° C. […]

[2] = tested on: C. albicans ATCC 90819(R) (strain D); experiment: microbe, parasite or virus in culture; type: cell-based, Candida albicans; conditions: strain D; compounds 1-4n and AmB; 48 h, RPMI 1640
Method: as §1, §2, §3

[3] = tested on: C. albicans ATCC MYA-1003(R) (strain G); experiment: microbe, parasite or virus in culture; type: cell-based, Candida albicans; conditions: strain G; compounds 1-4n and AmB; 48 h, RPMI 1640
Method: as §1, §2, §3

[4] = tested on: C. albicans ATCC MYA-1237(R) (strain F); experiment: microbe, parasite or virus in culture; type: cell-based, Candida albicans; conditions: strain F; compounds 1-4n and AmB; 48 h, RPMI 1640
Method: as §1, §2, §3

[5] = tested on: C. albicans ATCC MYA-2310(S) (strain E); experiment: Antifungal MIC determination (CLSI M27-A3, 96-well); type: cell-based, Candida albicans; conditions: strain E; compounds 1-4n and AmB; 48 h, RPMI 1640
Method: as §1, §2, §3

[6] = tested on: C. albicans ATCC MYA-2876(S) (strain C); experiment: as above; type: cell-based, Candida albicans; conditions: strain C; compounds 1-4n and AmB; 48 h, RPMI 1640
Method: as §1, §2, §3

[7] = tested on: Candida albicans ATCC 10231 (strain A); experiment: as above; type: cell-based; conditions: strain A; compounds 1-4n and AmB; 48 h, RPMI 1640
Method: as §1, §2, §3

[8] = tested on: Candida glabrata ATCC 2001 (strain H); experiment: as above; type: cell-based; conditions: strain H; for MIC-0: compounds 1-4n and AmB, 48 h, RPMI 1640
Method: as §1, §2, §3

[9] = tested on: Candida krusei ATCC 6258 (strain I); experiment: as above; type: cell-based; conditions: strain I; for MIC-0: compounds 1-4n and AmB, 48 h, RPMI 1640
Method: as §1, §2, §3

[10] = tested on: Candida parapsilosis ATCC 22019 (strain J); experiment: as above; type: cell-based; conditions: strain J; for MIC-0: compounds 1-4n and AmB, 48 h, RPMI 1640
Method: as §1, §2, §3

[11] = tested on: Aspergillus flavus ATCC MYA-3631 (strain K); experiment: Antifungal MIC determination, filamentous fungi spores; type: cell-based; conditions: all compounds
Method: as §1, §2
(§4) The MIC values against fungal strains were determined based on a previously published protocol. MIC values for ebsulfur (2a) analogues against fungal cells were evaluated in 96-well plates as described in the CLSI document M27-A3 with minor modifications. […] Therefore, potato dextrose broth (PDB) was used to grow the yeast inocula of all strains tested, which were later diluted in RPMI 1640 medium to perform determination of MIC values. […] The tested compounds (10 mg/mL) were diluted to the working stocks (500 μg/mL) by addition of DMSO. Two-fold serial dilution of the working stocks was prepared by addition of RPMI 1640 medium (100 μL) and cell suspension (100 μL) to 96-well microtiter plate to achieve final drug and inoculum concentrations ranging from 12.5-0.02 μg/mL and 5×10^3 CFU/mL, respectively. Plates were incubated for 48 h at 35° C.
(§5) MIC assays for the spore-forming filamentous fungi, such as strain A. flavus ATCC MYA-3631 (strain K), were performed in a similar fashion. The filamentous fungal strains were first cultured at 25° C. on potato dextrose agar (PDA) plates for 3-5 days or until confluent. Spores were collected by washing the surface of the agar plates with dd H2O (5 mL) and then isolated the spores by gravity filtration (the spores are H2O soluble). […] Researchers working with spores should wear a facemask to prevent spore inhalation.

[12] = tested on: Aspergillus nidulans ATCC 38163 (strain L); experiment: as above; type: cell-based; conditions: strain L; spores
Method: as §1, §2, §4, §5

[13] = tested on: Aspergillus terreus ATCC MYA-3633 (strain M); experiment: as above; type: cell-based; conditions: strain M, all compounds, spores
Method: as §1, §2, §4, §5

Row | SMILES | MIC-0 [1] [µg/mL] | MIC-0 [2] [µg/mL] | MIC-0 [3] [µg/mL] | MIC-0 [4] [µg/mL] | MIC-0 [5] [µg/mL] | MIC-0 [6] [µg/mL] | MIC-0 [7] [µg/mL] | MIC-0 [8] [µg/mL] | MIC-0 [9] [µg/mL] | MIC-0 [10] [µg/mL] | MIC-0 [11] [µg/mL] | MIC-0 [12] [µg/mL] | MIC-0 [13] [µg/mL] | MIC ([8]; Nakaseomyces glabratus, ATCC2001, azoles, read-out: MIC-2) [µg/mL] | MIC ([9]; Pichia kudriavzevii, ATCC6258, azoles, read-out: MIC-2) [µg/mL] | MIC ([10]; Lodderomyces parapsilosis, ATCC22019, azoles, read-out: MIC-2) [µg/mL] | MIC ([11]; Aspergillus flavus, read-out: MIC-0) [µg/mL] | MIC ([13]; Aspergillus terreus, read-out: MIC-0) [µg/mL]
1 | O=c1c2ccccc2sn1-c1ccc(F)cc1 [Compound 2b] | 6.25 (≈ 25.5 µM) | 3.13 (≈ 12.8 µM) | 1.56 (≈ 6.36 µM) | 6.25 (≈ 25.5 µM) | 3.13 (≈ 12.8 µM) | 3.13 (≈ 12.8 µM) | 3.13 (≈ 12.8 µM) | 6.25 (≈ 25.5 µM) | 3.13 (≈ 12.8 µM) | 12.5 (≈ 51 µM) | 6.25 (≈ 25.5 µM) | 12.5 (≈ 51 µM) | 12.5 (≈ 51 µM) |  |  |  |  | 
2 | O=c1c2ccccc2sn1-c1ccc(Cl)cc1 [Compound 2c] | >12.5 | 6.25 (≈ 23.9 µM) | 12.5 (≈ 47.8 µM) | 6.25 (≈ 23.9 µM) | 6.25 (≈ 23.9 µM) | 12.5 (≈ 47.8 µM) | 3.13 (≈ 12 µM) | 6.25 (≈ 23.9 µM) | 3.13 (≈ 12 µM) | 12.5 (≈ 47.8 µM) | 6.25 (≈ 23.9 µM) | 6.25 (≈ 23.9 µM) | 6.25 (≈ 23.9 µM) |  |  |  |  | 
3 | O=c1c2ccccc2sn1-c1ccc(Br)cc1 [Compound 2d] | 3.13 (≈ 10.2 µM) | 3.13 (≈ 10.2 µM) | 3.13 (≈ 10.2 µM) | 1.56 (≈ 5.09 µM) | 0.78 (≈ 2.55 µM) | 1.56 (≈ 5.09 µM) | 3.13 (≈ 10.2 µM) | 6.25 (≈ 20.4 µM) | 3.13 (≈ 10.2 µM) | 6.25 (≈ 20.4 µM) | 12.5 (≈ 40.8 µM) | 12.5 (≈ 40.8 µM) | 12.5 (≈ 40.8 µM) |  |  |  |  | 
4 | CC(C)c1cccc(-n2sc3ccccc3c2=O)c1 [Compound 2h] | 3.13 (≈ 11.6 µM) | 3.13 (≈ 11.6 µM) | 3.13 (≈ 11.6 µM) | 3.13 (≈ 11.6 µM) | 3.13 (≈ 11.6 µM) | 3.13 (≈ 11.6 µM) | 3.13 (≈ 11.6 µM) | 3.13 (≈ 11.6 µM) | 3.13 (≈ 11.6 µM) | 3.13 (≈ 11.6 µM) | 6.25 (≈ 23.2 µM) | 12.5 (≈ 46.4 µM) | 12.5 (≈ 46.4 µM) |  |  |  |  | 
5 | O=c1c2ccccc2sn1-c1cc(Br)cc(Br)c1 [Compound 2i] | 6.25 (≈ 16.2 µM) | 6.25 (≈ 16.2 µM) | 6.25 (≈ 16.2 µM) | 3.13 (≈ 8.13 µM) | 6.25 (≈ 16.2 µM) | 6.25 (≈ 16.2 µM) | 3.13 (≈ 8.13 µM) | 6.25 (≈ 16.2 µM) | 6.25 (≈ 16.2 µM) | 6.25 (≈ 16.2 µM) | 12.5 (≈ 32.5 µM) | 3.13 (≈ 8.13 µM) | 12.5 (≈ 32.5 µM) |  |  |  |  | 
6 | Cc1cc(C)cc(-n2sc3ccccc3c2=O)c1 [Compound 2j] | 6.25 (≈ 24.5 µM) | 12.5 (≈ 49 µM) | 3.13 (≈ 12.3 µM) | 3.13 (≈ 12.3 µM) | 0.78 (≈ 3.05 µM) | 1.56 (≈ 6.11 µM) | 3.13 (≈ 12.3 µM) | 12.5 (≈ 49 µM) | 12.5 (≈ 49 µM) | 12.5 (≈ 49 µM) | 12.5 (≈ 49 µM) | 12.5 (≈ 49 µM) | 12.5 (≈ 49 µM) |  |  |  |  | 
7 | COc1cc(OC)cc(-n2sc3ccccc3c2=O)c1 [Compound 2k] | 12.5 (≈ 43.5 µM) | 3.13 (≈ 10.9 µM) | 12.5 (≈ 43.5 µM) | 12.5 (≈ 43.5 µM) | 1.56 (≈ 5.43 µM) | 3.13 (≈ 10.9 µM) | 12.5 (≈ 43.5 µM) | 6.25 (≈ 21.8 µM) | 6.25 (≈ 21.8 µM) | 6.25 (≈ 21.8 µM) | 6.25 (≈ 21.8 µM) | 6.25 (≈ 21.8 µM) | 6.25 (≈ 21.8 µM) |  |  |  |  | 
8 | O=c1c2ccccc2sn1-c1cccc2ccccc12 [Compound 2l] | 12.5 (≈ 45.1 µM) | 3.13 (≈ 11.3 µM) | 6.25 (≈ 22.5 µM) | >12.5 | >12.5 | >12.5 | 6.25 (≈ 22.5 µM) | 12.5 (≈ 45.1 µM) | 6.25 (≈ 22.5 µM) | 12.5 (≈ 45.1 µM) | 12.5 (≈ 45.1 µM) | 12.5 (≈ 45.1 µM) | 12.5 (≈ 45.1 µM) |  |  |  |  | 
9 | O=c1c2ccccc2sn1-c1ccccn1 [Compound 2m] | 6.25 (≈ 27.4 µM) | 6.25 (≈ 27.4 µM) | 6.25 (≈ 27.4 µM) | 6.25 (≈ 27.4 µM) | 6.25 (≈ 27.4 µM) | 12.5 (≈ 54.8 µM) | 6.25 (≈ 27.4 µM) | 12.5 (≈ 54.8 µM) | 6.25 (≈ 27.4 µM) | 12.5 (≈ 54.8 µM) | 12.5 (≈ 54.8 µM) | 12.5 (≈ 54.8 µM) | 12.5 (≈ 54.8 µM) |  |  |  |  | 
10 | CCCCCCCCn1sc2ccccc2c1=O [Compound 3c] | 1.56 (≈ 5.92 µM) | 3.13 (≈ 11.9 µM) | 1.56 (≈ 5.92 µM) | 1.56 (≈ 5.92 µM) | 1.56 (≈ 5.92 µM) | 6.25 (≈ 23.7 µM) | 6.25 (≈ 23.7 µM) | 1.56 (≈ 5.92 µM) | 1.56 (≈ 5.92 µM) | 0.78 (≈ 2.96 µM) | ≤0.02 | ≤0.02 | ≤0.02 |  |  |  |  | 
11 | CCC(C)n1ncn(-c2ccc(N3CCN(c4ccc(OCC5COC(Cn6cncn6)(c6ccc(Cl)cc6Cl)O5)cc4)CC3)cc2)c1=O (stereo not drawn) [ITC, itraconazole, reference compound] |  |  |  |  |  |  |  |  |  |  |  |  |  | 7.8 (≈ 11.1 µM) | 0.48 (≈ 0.68 µM) | 0.12 (≈ 0.17 µM) | 0.48 (≈ 0.68 µM) | 0.975 (≈ 1.38 µM)
